Test results taken from patent US7449195B2 (priority 2001, dated 2008).
Like-named read-outs stand apart in the source and are kept apart here.

System: Phytophthora infestans
Format: in vivo
Conditions: individual active compound, tomato leaves, protective, evaluated after 6 days

Row | SMILES | Efficacy in % of the untreated control (0.05 ppm in the spray liquor) [%] | Efficacy in % of the untreated control (0.1 ppm in the spray liquor) [%] | Efficacy in % of the untreated control (0.2 ppm in the spray liquor) [%]
1 | Cc1ccc(C(C)NC(=O)[C@@H](NC(=O)OC(C)C)C(C)C)cc1 (stereo partly drawn) [II-3, iprovalicarb] | 29 | 53 | 70
2 | Cc1ccc(-c2c(Cl)nc(C#N)n2S(=O)(=O)N(C)C)cc1 [Ia, cyazofamid] | 53 | 70 | 82
